Laboratory results taken from article PMC8620715, “Biological Activity of Triazolopyrimidine Copper(II) Complexes Modulated by an Auxiliary N-N-Chelating Heterocycle Ligands” (Molecules, 2021).
pIC50: −log10 of the molar value. Converted amounts (≈) assume the structure as drawn. Where two headings read alike, the source gives them in different places.

How the values were obtained:
P. aeruginosa 27853 [1] = experiment: MIC by broth microdilution; type: cell-based, Pseudomonas aeruginosa; conditions: Pseudomonas aeruginosa; P. aeruginosa 27853, planktonic; read-out: MIC
Procedure: (§1) The antibacterial assays were carried out using two Gram-negative (Escherichia coli ATCC 25922, Pseudomonas aeruginosa ATCC 27853) and two Gram-positive (Staphylococcus aureus ATCC 25923, MRSA (meticillin-Resistant S. aureus) 388 (ATCC, American Type Culture Collection) bacteria.
(§2) The antimicrobial activity of the two complexes (1) and (2) was assessed using their minimum inhibitory concentration (MIC) by the broth microdilution method, as previously described by the Clinical and Laboratory Standard Institute (CLSI; M07-A9 document). A broth microdilution assay was performed in sterile 96-well plates using Muller-Hinton broth (Scharlau; MHB). The compounds solubilized in […] (1,000 μg/mL) were serially diluted in 90 μL MHB, in concentrations ranging between 500 and 0.97 μg/mL. Overnight cultures were used to prepare suspension in phosphate-buffered saline (pH 7.0) to match a 0.5 McFarland density. The bacterial suspensions were further diluted to 1:100 by adding 0.1 mL of bacterial suspension to 9.9 mL of MHB. A volume of 10 μL of this dilution was added to each well of columns 1–10, containing different concentrations of the tested compounds. […] Additionally, 10 μL of the diluted bacterial suspension was added in column 11 (the growth control). A volume of 100 μL MHB was added to the microtiter plates’ sterility control wells (column 12). After inoculation, the plates were incubated at 35 ± 2 °C for 18 h. Growth was measured as light absorbance (620 nm) in comparison to an uninoculated well (negative control). It was detected using a microtiter plate reader (Apollo LB 911ELISA (Berthold Technologies GmbH & Co. KG, Waltham, MA, USA)). The MIC of each compound was defined as the lowest concentration required to inhibit bacterial growth.

E. coli 25922 [2] = experiment: Biofilm formation on polystyrene (crystal violet), MBEC; type: cell-based, Escherichia coli; conditions: E. coli 25922, biofilm
Procedure: as §1
(§3) The method for assessment of biofilm formation on polystyrene microtiter plates was based on previously published protocols. The absorbance at 490 nm was measured with an Apollo LB 911ELISA (Berthold Technologies GmbH & Co. KG, Waltham, MA, USA) reader. The minimal biofilm-eradication concentration (MBEC) was defined as the lowest concentration of antibiotics required to eradicate the biofilm. All experiments were performed in triplicate.

B16 cells [3] = experiment: Cell morphology by fluorescence microscopy (phalloidin staining), B16 cells; type: cell-based, mouse; conditions: 2.5 µg/mL (2.84 μM and 2.76 μM for the complexes), 24 h
Procedure: (§4) The morphological changes induced by the treatment of the BJ and B16 cell lines with the tested compounds at two different concentrations (2.5 and 10 µg/mL) applied for 24 h were investigated by fluorescence microscopy.
(§5) According to the manufacturer protocol, the cytoskeleton actin filaments of BJ and B16 cells were stained with phalloidin-FITC (Sigma-Aldrich, St. Louis, MO, USA). Briefly, cells were washed with PBS (5 min, 3 times), fixed for 5 min with 3% paraformaldehyde, washed three times with PBS, permeabilized with 0.1% Triton X-100 in PBS for 15 min, washed three times with PBS, stained with 20 μg/mL phalloidin-FITC at room temperature for 1 h and rewashed three times with PBS. The cell nucleus was stained with 8 μM of Hoechst 33342 solution for 10 min, washed three times with PBS, and finally, mounted and sealed on glass slides with FluorSave™ Reagent (Merck Millipore, Germany). The fluorescence images were acquired using an Andor DSD2 Confocal Unit (Andor, Ireland), mounted on an epifluorescence microscope, Olympus BX-51 (Olympus, Germany), equipped with a 40x and 100x objective and an appropriate DAPI/Hoechst filter cube (excitation filter 390/40 […], dichroic mirror 405 nm and emission filter 452/45 nm) and GFP/FITC filter cube (excitation filter 466/40 nm, dichroic mirror 488 nm and emission filter 525/54 nm).

[4] = system: B16 murine melanoma cell line; experiment: MTT cell viability assay, B16 melanoma cells; type: cell-based, mouse; conditions: 24 h and 48 h
Procedure: (§6) Human fibroblast cells (BJ—ATCC CRL-2522, USA) were grown in minimal essential medium (MEM) supplemented with 2 mM L-Glutamine, 10% fetal calf serum (FCS), 100 units/mL of penicillin, and 100 µg/mL of streptomycin at 37 °C in a humidified incubator under an atmosphere containing 5% CO2. Mouse melanoma cells (B16—ATCC CRL—6475, USA) were grown in DMEM (Dulbecco’s Modified Eagle Medium) supplemented with similar reagents as MEM. All cell cultivation media and reagents were purchased from Biochrom AG (Berlin, Germany) and Sigma-Aldrich (Darmstadt, Germany).
(§7) Cell viability was evaluated using 3-(4,5-dimethylthiazol-2-yl)-2,5-diphenyltetrazolium bromide (MTT) assay as described previously. First, the cells were seeded in 96-well plates (20000 cells/well) and cultured for 24 h in medium. […] The negative control was represented by cells cultivated in a medium without the investigated compounds. Following incubation, the medium was changed, and the MTT solution was added to each well to a final concentration of 1 mg/mL and incubated for an additional 4 h, at 37 °C. Finally, the medium was collected, and DMSO was used to dissolve the insoluble formazan product. The absorbance of the samples was recorded at 570 nm using a plate reader Mithras 940 (Berthold). The data were corrected for the background, and the percentage of viable cells was obtained using the equation:Cell viability = [(A570 of treated cells)/(A570 of untreated cells)] × 100%(1)
(§8) The half-maximal inhibitory concentration (IC50) was determined by fitting the data with a sigmoidal logistical equation using the software Origin 8.1 (Microcal Inc., Los Angeles, CA, USA).

P. aeruginosa 27853 [5] = experiment: Biofilm formation on polystyrene (crystal violet), MBEC; type: cell-based, Pseudomonas aeruginosa; conditions: P. aeruginosa 27853, biofilm
Procedure: as §1, §3

E. coli 25922 [6] = experiment: MIC by broth microdilution; type: cell-based, Escherichia coli; conditions: Escherichia coli; E. coli 25922, planktonic; read-out: MIC
Procedure: as §1, §2

S. aureus 25923 [7] = experiment: MIC by broth microdilution; type: cell-based, Staphylococcus aureus; conditions: Staphylococcus aureus; S. aureus 25923, planktonic; read-out: MIC
Procedure: as §1, §2

MRSA 388 [8] = experiment: MIC by broth microdilution; type: cell-based, Staphylococcus aureus; conditions: Staphylococcus aureus; MRSA 388, planktonic; read-out: MIC
Procedure: as §1, §2

[9] = system: BJ normal cell line (human fibroblast cells); experiment: MTT cell viability assay, BJ normal cells; type: cell-based; conditions: range of tested concentrations, 24 h and 48 h
Procedure: as §6, §7, §8

B16 cells [10] = experiment: Lactate dehydrogenase (LDH) release assay, B16 cells; type: cell-based, mouse; conditions: B16, 24 h and 48 h
Procedure: (§9) Membrane integrity after peptide treatment was assessed based on LDH release using a CytoTox 96 Non-Radioactive Cytotoxicity Assay (Promega), as previously described. […] Maximal LDH release was obtained by complete cell lysis induced by using 1% of Triton X-100. The absorption resulting from LDH activity was measured in a microplate reader Mithras 940 (Berthold) at 490 nm, and the % LDH was calculated as: [(corrected absorbance of the LDH released in treated cells)/(corrected absorbance of the total LDH released)] * 100%.

S. aureus 25923 [11] = experiment: Biofilm formation on polystyrene (crystal violet), MBEC; type: cell-based, Staphylococcus aureus; conditions: S. aureus 25923, biofilm
Procedure: as §1, §3

MRSA 388 [12] = experiment: as above; type: cell-based, Staphylococcus aureus; conditions: MRSA 388, biofilm
Procedure: as §1, §3

BJ cells [13] = experiment: Lactate dehydrogenase (LDH) release assay, BJ cells; type: cell-based, human; conditions: 24 h and 48 h
Procedure: as §9

BJ cells [14] = experiment: Cell morphology by fluorescence microscopy (phalloidin staining), BJ cells; type: cell-based, human; conditions: 2.5 and 10 µg/mL, 24 h
Procedure: as §4, §5

[15] = system: B16 murine melanoma cell line; conditions: cited from earlier work; for TI: 48 h; for pIC50: B16, 48 h
MRSA 388 [16] = conditions: MRSA 388, biofilm; cited from earlier work
S. aureus 25923 [17] = conditions: cited from earlier work
E. coli 25922 [18] = conditions: E. coli 25922, biofilm; cited from earlier work
MRSA 388 [19] = conditions: cited from earlier work
E. coli 25922 [20] = conditions: cited from earlier work
P. aeruginosa 27853 [21] = conditions: cited from earlier work
P. aeruginosa 27853 [22] = conditions: P. aeruginosa 27853, biofilm; cited from earlier work
S. aureus 25923 [23] = conditions: S. aureus 25923, biofilm; cited from earlier work

| Compound | TI [15] | pIC50 [15] | MBEC (MRSA 388 [16]) | MIC (S. aureus 25923 [17]) | MBEC (E. coli 25922 [18]) | MIC (MRSA 388 [19]) | MIC (E. coli 25922 [20]) | MIC (P. aeruginosa 27853 [21]) | MBEC (P. aeruginosa 27853 [22]) | MBEC (S. aureus 25923 [23]) | other results |
| --- | --- | --- | --- | --- | --- | --- | --- | --- | --- | --- | --- |
| Cc1cc(C)n2ncnc2n1 [dmtp, 5,7-dimethyl-1,2,4-triazolo[1,5-a]pyrimidine, reference compound] |  |  |  |  |  |  |  |  |  |  | MIC (P. aeruginosa 27853 [1]): 8450 µM (≈ 1250 µg/mL); MBEC (E. coli 25922 [2]): 8.45 mM; morphological changes of B16 cells (B16 cells [3]): not altered; effect on viability of B16 cells [4]: did not affect the viability; MBEC (P. aeruginosa 27853 [5]): 8.45 mM; MIC (E. coli 25922 [6]): 8450 µM (≈ 1250 µg/mL); MIC (S. aureus 25923 [7]): 8450 µM (≈ 1250 µg/mL); MIC (MRSA 388 [8]): 16900 µM (≈ 2500 µg/mL); effect on viability of BJ cells [9]: did not affect the viability; membrane integrity (LDH release) (B16 cells [10]): did not affect the membrane integrity; MBEC (S. aureus 25923 [11]): 8.45 mM; MBEC (MRSA 388 [12]): 16.90 mM; membrane integrity (LDH release) (BJ cells [13]): did not affect the membrane integrity; morphological changes of BJ cells (BJ cells [14]): did not alter their morphology |
| Cc1cc(-c2ccccc2)nc2ncnn12.[Cu+2].[O-][Cl+3]([O-])([O-])[O-].[O-][Cl+3]([O-])([O-])[O-].c1ccc(-c2ccccn2)nc1.c1ccc(-c2ccccn2)nc1 [CubPP, [Cu(bpy)2(pmtp)](ClO4)2] | 3.23 | 4.70 | 0.40 mM | 400 µM | 0.40 mM | 400 µM | 200 µM | 400 µM | 0.40 mM | 0.80 mM |  |
| O.[Cu+2].[O-][Cl+3]([O-])([O-])[O-].[O-][Cl+3]([O-])([O-])[O-].c1cnc2c(c1)ccc1cccnc12.c1cnc2c(c1)ccc1cccnc12 [CupP, [Cu(phen)2(OH2)](ClO4)2] | 0.80 | 5.43 | 0.10 mM | 30 µM | 0.10 mM | 120 µM | 30 µM | 500 µM | 0.50 mM | 0.03 mM |  |
| {[Cu(bpy)2(μ2OClO3)]ClO4}n [CubP] | 5.53 | 4.80 | 0.27 mM | 270 µM | 0.54 mM | 270 µM | 540 µM | 1090 µM | 1.09 mM | 0.14 mM |  |
| Cc1cc(-c2ccccc2)nc2ncnn12.[Cu+2].[O-][Cl+3]([O-])([O-])[O-].[O-][Cl+3]([O-])([O-])[O-].c1cnc2c(c1)ccc1cccnc12.c1cnc2c(c1)ccc1cccnc12 [CupPP, [Cu(phen)2(pmtp)](ClO4)2] | 0.88 | 5.40 | 0.05 mM | 10 µM | 0.02 mM | 50 µM | 20 µM | 90 µM | 0.09 mM | 0.01 mM |  |
